This test concerns P. falciparum 3D7. In words: DAPI stain fluorescent high content imaging assay, P. falciparum 3D7 (confirmatory screen, Avery). As to conditions: Plasmodium falciparum; for EC50: 3D7, read-out: EC50_nM; for inhibition of growth at 5 µM: 3D7, read-out: percent_inh @ 5 uM; for inhibition of growth at 2 µM: 3D7, read-out: percent_inh @ 2 uM.

As to `CCN(CC)CCn1c(=N)n(CC(O)c2ccc(Cl)c(Cl)c2)c2ccccc21` (stereo not shown) [MMV000248], the EC50 worked out at 718 nM and the inhibition of growth at 5 µM was found to be 97%.
The matching figures for `CCOc1cc2c(cc1OCC)C(c1cc(Cl)ccc1O)NCC2` (stereo not shown) [MMV000478]: 746 nM and 98%.
Consider `CCOC(=O)c1cnc2ccc(OC)cc2c1Nc1ccc(N2CCN(C)CC2)cc1` [MMV000704], for which the EC50 worked out at 1100 nM.
`Oc1ccc(-c2nc(-c3ccc4oc5ccc(-c6[nH]c(-c7ccc(O)cc7)nc6-c6ccccc6)cc5c4c3)c(-c3ccccc3)[nH]2)cc1` [MMV000753]: the EC50 was 326 nM and the inhibition of growth at 5 µM is 98%.
`COc1ccc(Nc2nc(NCc3ccccc3)c3ccccc3n2)cc1` [MMV000963]: the EC50 was 589 nM.
Same read-out and setting: the figure for `CN1CCN(c2nc(Nc3ccc(O)cc3)nc3ccccc23)CC1` [MMV000986] is 1430 nM.
Turning to `COc1cc2cc(C(=O)Nc3ccccc3)c(N)nc2cc1OC` [MMV006767], the inhibition of growth at 5 µM worked out at 99%.
Turning to `COc1ccccc1N1C(=N)SC(=Cc2ccc(OCc3ccccc3F)cc2)C1=O` [MMV007199], the EC50 came to 478 nM and the inhibition of growth at 5 µM stood at 95%.
In the case of `Brc1ccc(Nc2nc3ccccc3nc2Nc2ccc(Br)cc2)cc1` [MMV007224], the EC50 stood at 1060 nM and the inhibition of growth at 5 µM was found to be 98%.
On to `COc1ccc2nc(C)cc(Nc3ccc(Cl)cc3)c2c1` [MMV007875], for which the EC50 is 2000 nM and the inhibition of growth at 2 µM turned out to be 95%.
Regarding `O=c1nc(C=Cc2ccc(Cl)cc2)oc2ccccc12` [MMV007977], the EC50 worked out at 995 nM and the inhibition of growth at 5 µM came to 76%.
Turning to `Cc1cc(C)cc(Nc2cc(C)nc3nc(C(F)(F)F)nn23)c1` [MMV011259], the EC50 came to 85.7 nM.
Take `Cc1ccc(Nc2nc(N)c3ccccc3n2)cc1Cl` [MMV011522]: the EC50 stood at 4000 nM and the inhibition of growth at 2 µM amounted to 96%.
In the case of `Oc1ccccc1CN1CCN(C(c2ccccc2)c2ccccc2)CC1` [MMV011795], the EC50 turned out to be 611 nM and the inhibition of growth at 5 µM stood at 97%.
The matching figures for `CCOc1ccc(C2N(C)c3ccccc3N2C)cc1` [MMV075490]: 941 nM and 72%.
With `Nc1nc(Nc2cccc(F)c2)nc2ccccc12` [MMV080034], the EC50 was 1000 nM.
For the molecule `COc1ccc(C=C2SC(Nc3ccc(F)cc3)=NC2=O)c(OC)c1` [MMV084434], the EC50 is 591 nM and the inhibition of growth at 5 µM was determined as 92%.
With `COc1ccc2nc(C)cc(Nc3ccccc3O)c2c1` [MMV274073], the EC50 stood at 686 nM.
On the same count and under the same terms, the figure for `CCn1nc(-c2ccc(C(=O)OC)cc2)nc2c(=O)n(C)c(=O)nc1-2` [MMV306025] is 693 nM.
The same measure, in the same setting: the figure for `COc1ccc(-c2nc(N3CCN(C(=O)C4CCCCC4)CC3)c3c4c(sc3n2)CCCC4)cc1` [MMV396594] is 1060 nM.
Same read-out and setting: under `CCOc1ccccc1CN1CCc2nc3cc(C(C)(C)C)nn3c(O)c2C1` [MMV396595] stands 1010 nM; under `CCOc1c(Cl)cc(CNCC(O)c2ccccc2)cc1OC` (stereo not shown) [MMV396632], 1050 nM; under `CCOc1cc(CNC(C)C(O)c2ccccc2)cc(Cl)c1OCC` (stereo not shown) [MMV396633], 1240 nM.
As for `O=C(NC1CCN(Cc2ccccc2)CC1)c1cc2nc(-c3ccc(Cl)s3)cc(C(F)(F)F)n2n1` [MMV396635], the EC50 stood at 959 nM.
The same measure, in the same setting: under `Cc1sc(NC(=O)c2ccccc2)c(C(c2cccs2)N2CCN(c3ccccc3)CC2)c1C` (stereo not shown) [MMV396652] stands 1180 nM.
The same measure, in the same setting: under `Cc1sc(NC(=O)c2ccco2)c(C(c2cccnc2)N2CCC(Cc3ccccc3)CC2)c1C` (stereo not shown) [MMV396663] stands 1020 nM; under `CCOC(=O)c1c(C)n(-c2ccccc2)c2ccc(OC(=O)c3cc(OC)c(OC)c(OC)c3)cc12` [MMV396664], 615 nM.
In the case of `COc1cc(C(=O)Nc2nc3c(cc4c5c(cccc53)CC4)s2)cc(OC)c1OC` [MMV396665], the EC50 was 898 nM.
The same measure, in the same setting: under `Cc1cc(N2CCCC2)nc(Nc2ccc(NC(=O)CCc3ccccc3)cc2)n1` [MMV396669] stands 1070 nM.

(Values after article PMC3684613 (PLoS ONE, 2013).)
